Data on 28 compounds can be found in US8691804B2 (Evotec AG, priority 2008, dated 2014).

The term pIC50 denotes −log10 of the IC50, conventionally taken in molar units.

pIC50: −log10 of the molar value.

In the assay the target is T1, human H3 receptors (Homo sapiens, UniProt Q9Y5N1).
T1 construct: host or cells: CHO-K1
T1 sequence (Q9Y5N1 whole entry): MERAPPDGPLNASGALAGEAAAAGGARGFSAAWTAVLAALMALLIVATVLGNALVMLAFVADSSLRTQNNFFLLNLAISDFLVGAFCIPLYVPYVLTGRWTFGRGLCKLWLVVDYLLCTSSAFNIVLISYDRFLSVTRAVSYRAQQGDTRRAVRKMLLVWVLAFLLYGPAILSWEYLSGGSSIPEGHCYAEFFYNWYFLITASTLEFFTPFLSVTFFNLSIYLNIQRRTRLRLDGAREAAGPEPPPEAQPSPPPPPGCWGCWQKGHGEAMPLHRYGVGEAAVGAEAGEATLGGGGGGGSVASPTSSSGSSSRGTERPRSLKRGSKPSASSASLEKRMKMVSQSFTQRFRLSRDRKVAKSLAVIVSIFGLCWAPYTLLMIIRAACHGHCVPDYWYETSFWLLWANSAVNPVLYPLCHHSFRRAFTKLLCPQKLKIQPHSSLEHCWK
Kind of assay: cAMP quantification assay for human H3 receptor testing. Format: cell-based. As to conditions: CHO-K1 cells expressing human H3 receptors; inhibition of agonist-induced decrease of cAMP; 100 nM histamine, 10 μM forskolin; read-out: Potency range (IC50 values). An outline of the steps:
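CHO-K1 cells expressing human H3 (10,000/well) were preincubated 30 min at 37 °C with compound in PBS containing 1 mM IBMX and 0.03% BSA. They were then challenged 30 min with agonist solution (100 nM histamine plus 10 μM forskolin). cAMP was quantified by enzyme-complementation luminescence, with 8 concentrations in triplicate at 1% DMSO.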
Turning to `CNC(=O)c1ccc(OCC2CN(C(=O)N3CCCN(C4CCC4)CC3)C2)cn1` [Example 138, 5-({1-[(4-cyclobutyl-1,4-diazepan-1-yl)carbonyl]azetidin-3-yl}methoxy)-N-methylpyridine-2-carboxamide], the negative-log IC50 (pIC50) is more than 7.00.
For the compound `Cc1ccc(C(=O)NC2CN(C(=O)N3CCCN(C4CCC4)CC3)C2)cn1` [Example 139, N-{1-[(4-cyclobutyl-1,4-diazepan-1-yl)carbonyl]azetidin-3-yl}-6-methylpyridine-3-carboxamide], the pIC50 was more than 7.00.
As for `O=C(NC1CN(C(=O)N2CCCN(C3CCC3)CC2)C1)c1ccc(Cl)cc1` [Example 140, 4-chloro-N-{1-[(4-cyclobutyl-1,4-diazepan-1-yl)carbonyl]azetidin-3-yl}benzamide], the pIC50 is more than 7.00.
On to `O=C(NC1CN(C(=O)N2CCCN(C3CCC3)CC2)C1)C1CCCCC1` [Example 141, N-{1-[(4-cyclobutyl-1,4-diazepan-1-yl)carbonyl]azetidin-3-yl}cyclohexanecarboxamide], for which the pIC50 was more than 7.00.
With `CN(C(=O)c1ccc(Cl)cc1)C1CN(C(=O)N2CCCN(C3CCC3)CC2)C1` [Example 142, 4-chloro-N-{1-[(4-cyclobutyl-1,4-diazepan-1-yl)carbonyl]azetidin-3-yl}-N-methylbenzamide], the pIC50 was more than 7.00.
The same measure for `Cc1ccc(C(=O)N(C)C2CN(C(=O)N3CCCN(C4CCC4)CC3)C2)cn1` [Example 143, N-{1-[(4-cyclobutyl-1,4-diazepan-1-yl)carbonyl]azetidin-3-yl}-N,6-dimethylpyridine-3-carboxamide]: more than 7.00; for `CN(C(=O)C1CCCCC1)C1CN(C(=O)N2CCCN(C3CCC3)CC2)C1` [Example 144, N-{1-[(4-cyclobutyl-1,4-diazepan-1-yl)carbonyl]azetidin-3-yl}-N-methylcyclohexanecarboxamide]: more than 7.00; for `Cc1ccc(N(C)C(=O)C2CN(C(=O)N3CCCN(C4CCC4)CC3)C2)cn1` [Example 145, 1-[(4-cyclobutyl-1,4-diazepan-1-yl)carbonyl]-N-methyl-N-(6-methylpyridin-3-yl)azetidine-3-carboxamide]: more than 7.00.
Turning to `CN(C(=O)C1CN(C(=O)N2CCCN(C3CCC3)CC2)C1)c1ccc(Cl)cc1` [Example 146, N-(4-chlorophenyl)-1-[(4-cyclobutyl-1,4-diazepan-1-yl)carbonyl]-N-methylazetidine-3-carboxamide], the pIC50 is more than 7.00.
On to `CNC(=O)c1cc(OC2CN(C(=O)N3CCCN(C4CCC4)CC3)C2)ccn1` [Example 147, 4-({1-[(4-cyclobutyl-1,4-diazepan-1-yl)carbonyl]azetidin-3-yl}oxy)-N-methylpyridine-2-carboxamide], for which the pIC50 is more than 7.00.
On to `COCC1CN(C(=O)N2CCCN(C3CCC3)CC2)C1` [Example 148, 1-cyclobutyl-4-{[3-(methoxymethyl)azetidin-1-yl]carbonyl}-1,4-diazepane], for which the pIC50 was more than 7.00.
With `Cn1cc(-c2ccc(OC3CN(C(=O)N4CCCN(C5CCC5)CC4)C3)cc2)cn1` [Example 149, 1-cyclobutyl-4-({3-[4-(1-methyl-1H-pyrazol-4-yl)phenoxy]azetidin-1-yl}carbonyl)-1,4-diazepane] the figure was more than 7.00; with `Cc1nn(C)c(C)c1-c1ccc(OC2CN(C(=O)N3CCCN(C4CCC4)CC3)C2)cc1` [Example 150, 1-cyclobutyl-4-({3-[4-(1,3,5-trimethyl-1H-pyrazol-4-yl)phenoxy]azetidin-1-yl}carbonyl)-1,4-diazepane], more than 7.00.
In the case of `Cc1nccc(OC2CN(C(=O)N3CCCN(C4CCC4)CC3)C2)c1F` [Example 151, 1-cyclobutyl-4-({3-[(3-fluoro-2-methylpyridin-4-yl)oxy]azetidin-1-yl}carbonyl)-1,4-diazepane], the pIC50 was more than 7.00.
The same measure for `O=C(N1CCCN(C2CCC2)CC1)N1CC(Oc2ccc3ccccc3c2)C1` [Example 152, 1-cyclobutyl-4-{[3-(naphthalen-2-yloxy)azetidin-1-yl]carbonyl}-1,4-diazepane]: more than 7.00.
The same measure for `O=C(N1CCCN(C2CCC2)CC1)N1CC(COc2ccc(C(F)(F)F)nc2)C1` [Example 153, 1-cyclobutyl-4-{[3-({[6-(trifluoromethyl)pyridin-3-yl]oxy}methyl)azetidin-1-yl]carbonyl}-1,4-diazepane]: more than 7.00; for `O=C(N1CCCN(C2CCC2)CC1)N1CC(Oc2ccc3[nH]ccc3c2)C1` [Example 154, 5-({1-[(4-cyclobutyl-1,4-diazepan-1-yl)carbonyl]azetidin-3-yl}oxy)-1H-indole]: more than 7.00; for `Cn1ccc2cc(OC3CN(C(=O)N4CCCN(C5CCC5)CC4)C3)ccc21` [Example 155, 5-({1-[(4-cyclobutyl-1,4-diazepan-1-yl)carbonyl]azetidin-3-yl}oxy)-1-methyl-1H-indole]: more than 7.00.
With `CC(C)(CO)c1ccc(OC2CN(C(=O)N3CCCN(C4CCC4)CC3)C2)cn1` [Example 156, 2-[5-({1-[(4-cyclobutyl-1,4-diazepan-1-yl)carbonyl]azetidin-3-yl}oxy)pyridin-2-yl]-2-methylpropan-1-ol] the figure was more than 7.00.
Turning to `CCN1CCCN(C(=O)N2CC(Oc3ccc(C(C)(C)O)nc3)C2)CC1` [Example 157, 2-[5-({1-[(4-ethyl-1,4-diazepan-1-yl)carbonyl]azetidin-3-yl}oxy)pyridin-2-yl]propan-2-ol], the pIC50 is more than 7.00.
With `CC(C)N1CCCN(C(=O)N2CC(Oc3ccc(C(C)(C)O)nc3)C2)CC1` [Example 158, 2-{5-[(1-{[4-(1-methylethyl)-1,4-diazepan-1-yl]carbonyl}azetidin-3-yl)oxy]pyridin-2-yl}propan-2-ol], the pIC50 is more than 7.00.
With `CC(C)(O)c1ccc(OC2CN(C(=O)N3CCCN(C4CCCC4)CC3)C2)cn1` [Example 159, 2-[5-({1-[(4-cyclopentyl-1,4-diazepan-1-yl)carbonyl]azetidin-3-yl}oxy)pyridin-2-yl]propan-2-ol] the figure was 5.30 to 6.30; with `O=C(N1CCCN(C2CCC2)CC1)N1CC(Oc2ncc(F)cn2)C1` [Example 160, 1-cyclobutyl-4-({3-[(5-fluoropyrimidin-2-yl)oxy]azetidin-1-yl}carbonyl)-1,4-diazepane], more than 7.00.
As to `COc1ccc(OC2CN(C(=O)N3CCCN(C4CCC4)CC3)C2)nc1` [Example 161, 1-cyclobutyl-4-({3-[(5-methoxypyridin-2-yl)oxy]azetidin-1-yl}carbonyl)-1,4-diazepane], the pIC50 is more than 7.00.
Regarding `CCc1cnc(OC2CN(C(=O)N3CCCN(C4CCC4)CC3)C2)nc1` [Example 162, 1-cyclobutyl-4-({3-[(5-ethylpyrimidin-2-yl)oxy]azetidin-1-yl}carbonyl)-1,4-diazepane], the negative-log IC50 (pIC50) was 5.30 to 6.30.
The same measure for `CS(=O)(=O)c1ccc(OC2CN(C(=O)N3CCCN(C4CCC4)CC3)C2)cc1` [Example 163, 1-cyclobutyl-4-({3-[4-(methylsulfonyl)phenoxy]azetidin-1-yl}carbonyl)-1,4-diazepane]: more than 7.00.
For `Cc1ccc(COC2CN(C(=O)N3CCCN(C4CCC4)CC3)C2)cn1` [Example 164, 1-cyclobutyl-4-({3-[(6-methylpyridin-3-yl)methoxy]azetidin-1-yl}carbonyl)-1,4-diazepane], the negative-log IC50 (pIC50) is more than 7.00.
The same measure for `CC(C)(O)c1ccc(O[C@H]2C[C@@H](C(=O)N3CCCN(C4CCC4)CC3)C2)cn1` [Example 165, 2-[5-({cis-3-[(4-cyclobutyl-1,4-diazepan-1-yl)carbonyl]cyclobutyl}oxy)pyridin-2-yl]propan-2-ol]: more than 7.00.
